Data published in patent US7759369B2, “Pyridine compounds for the treatment of prostaglandin mediated diseases” (Glaxo Group Limited, priority 2004, dated 2010).
Counter-ions that a name gives are not always drawn.

Legend:
TP receptor = molecular target: T1, TP receptor (Homo sapiens, UniProt P21731); test: human TP calcium mobilisation assay (CHO-K1 cells, U46619, FLIPR); type: cell-based; conditions: free bases or sodium salts; read-out: functional pKi, human TP calcium mobilisation assay (converted)
T1 construct: expressed in transfected cells; host or cells: CHO-K1
T1 sequence (P21731 1-343): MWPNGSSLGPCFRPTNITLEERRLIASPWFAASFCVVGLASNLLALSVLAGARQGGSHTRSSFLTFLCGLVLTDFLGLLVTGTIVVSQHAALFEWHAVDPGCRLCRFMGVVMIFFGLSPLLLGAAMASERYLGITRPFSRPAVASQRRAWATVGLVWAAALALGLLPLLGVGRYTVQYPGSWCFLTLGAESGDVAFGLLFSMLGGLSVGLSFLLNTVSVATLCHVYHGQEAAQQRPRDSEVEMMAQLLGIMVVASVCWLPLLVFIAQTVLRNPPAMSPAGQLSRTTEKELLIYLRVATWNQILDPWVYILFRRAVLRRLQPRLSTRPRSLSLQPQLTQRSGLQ
Protocol: To determine if a compound has agonist or antagonist activity at the TP receptor a functional calcium mobilisation assay may be performed. Briefly, the antagonist properties of compounds are assessed by their ability to inhibit the mobilisation of intracellular calcium ([Ca^2+]i) in response to activation of TP receptors by the stable TXA2 mimetic U46619 (9,11-dideoxy-11α,9α-epoxy-methanoprostaglandin F2 α; commercially available from e.g Sigma-Aldrich). Increasing concentrations of antagonist reduce the amount of calcium that a given concentration of U46619 can mobilise. The net effect is to displace the U46619 concentration-effect curve. The amount of calcium produced is assessed using a calcium-sensitive fluorescent dye such as Fluo-4, AM and a suitable instrument such as a Fluorimetric Imaging Plate Reader (FLIPR). Increasing amounts of [Ca^2+]i produced by receptor activation increase the amount of fluorescence produced by the dye and give rise to an increasing signal. The signal may be detected using the FLIPR instrument and the data generated may be analysed with suitable curve-fitting software. The agonist activity of the compounds are determined by their ability to cause an increase in intracellular mobilisation in the absence of U46619.
The human TP calcium mobilisation assay utilises Chinese hamster ovary-K1 (CHO-K1) cells into which a stable (pCIN; BioTechniques 20 (1996): 102-110) vector containing TP cDNA has previously been transfected. Cells are cultured in suitable flasks containing culture medium such as DMEM:F-12 supplemented with 10% v/v foetal calf serum, 2 mM L-glutamine, 0.25 mg/ml geneticin, 100 μM flurbiprofen and 10 μg/ml puromycin.
For assay, cells are harvested using a proprietary reagent that dislodges cells such as Versene. Cells are re-suspended in a suitable quantity of fresh culture media for introduction into a 96-well plate. Following incubation for 24 hours at 37° C. the culture media is replaced with a medium containing Fluo-4 and the detergent pluronic acid, and a further incubation takes place. Concentrations of compounds are then added to the plate in order to construct concentration-effect curves. This may be performed on the FLIPR in order to assess the agonist properties of the compounds. Concentrations of U46619 are then added to the plate in order to assess the antagonist properties of the compounds.
The data so generated may be analysed by means of a computerised curve-fitting routine. The concentration of compound that elicits a half-maximal inhibition of the calcium mobilisation induced by U46619 (plC50) may then be estimated, and the percentage activation caused by the compounds directly can be used to determine if there is any agonism present.

EP1 receptors = molecular target: T2, EP1 receptors (Homo sapiens, UniProt P34995); test: Binding assay for the human prostanoid EP1 receptor (competition with [3H]-PGE2); design: expressed in transfected cells; host or cells: CHO-K1 (membrane fraction); conditions: averages of a number of experiments; Example 3 as sodium salt; read-out: pIC50 value in the binding assay for the human prostanoid EP1 receptor (converted)
T2 sequence (P34995 1-402): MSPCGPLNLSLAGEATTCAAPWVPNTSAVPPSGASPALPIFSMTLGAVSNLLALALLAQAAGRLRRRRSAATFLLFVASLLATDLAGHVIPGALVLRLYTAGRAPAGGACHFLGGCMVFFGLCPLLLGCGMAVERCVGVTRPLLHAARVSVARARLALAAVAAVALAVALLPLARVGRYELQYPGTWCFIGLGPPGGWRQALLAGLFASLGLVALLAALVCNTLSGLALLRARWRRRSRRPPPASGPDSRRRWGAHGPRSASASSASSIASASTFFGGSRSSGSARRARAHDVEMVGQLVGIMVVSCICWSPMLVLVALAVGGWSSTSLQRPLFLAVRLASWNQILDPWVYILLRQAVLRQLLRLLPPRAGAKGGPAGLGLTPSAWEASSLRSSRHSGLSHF
Protocol: Binding Assay for the Human Prostanoid EP1 Receptor
Competition assay using [^3H]-PGE2.
Compound potencies are determined using a radioligand binding assay. In this assay compound potencies are determined from their ability to compete with tritiated prostaglandin E2 ([^3H]-PGE2) for binding to the human EP1 receptor.
This assay utilises Chinese hamster ovary-K1 (CHO-K1) cells into which a stable vector containing the EP1 cDNA has previously been transfected. Cells are cultured in suitable flasks containing culture medium such as DMEM:F-12 supplemented with 10% v/v foetal calf serum, 2 mM L-glutamine, 0.25 mg/ml geneticin, 10 μg/ml puromycin and 10 μM indomethacin.
Cells are detached from the culture flasks by incubation in calcium and magnesium free phosphate buffered saline containing 1 mM disodium ethylenediaminetetraacetic acid (Na2EDTA) and 10 μM indomethacin for 5 min. The cells are isolated by centrifugation at 250×g for 5 mins and suspended in an ice cold buffer such as 50 mM Tris, 1 mM Na2EDTA, 140 mM NaCl, 10 μM indomethacin (pH 7.4). The cells are homogenised using a Polytron tissue disrupter (2×10s burst at full setting), centrifuged at 48,000×g for 20 mins and the pellet containing the membrane fraction is washed (optional) three times by suspension and centrifugation at 48,000×g for 20 mins. The final membrane pellet is suspended in an assay buffer such as 10 mM 2-[N-morpholino]ethanesulphonic acid, 1 mM Na2EDTA, 10 mM MgCl2 (pH 6). Aliquots are frozen at −80° C. until required.
For the binding assay the cell membranes, competing compounds and [^3H]-PGE2 (3 nM final assay concentration) are incubated in a final volume of 100 μl for 30 min at 30° C. All reagents are prepared in assay buffer. Reactions are terminated by rapid vacuum filtration over GF/B filters using a Brandell cell harvester. The filters are washed with ice cold assay buffer, dried and the radioactivity retained on the filters is measured by liquid scintillation counting in Packard TopCount scintillation counter.
The data are analysed using non linear curve fitting techniques to determine the concentration of compound producing 50% inhibition of specific binding (IC50).

Row | Ki (TP receptor) | IC50 (EP1 receptors) | SMILES
1 | ≤ 31.6 nM | ≤ 31.6 nM | O=C(O)c1cccc(Cc2cc(Cl)ccc2OCc2ccc(Cl)cc2F)n1 [Example 3, Sodium 6-[(5-chloro-2-{[(4-chloro-2-fluorophenyl)methyl]oxy}phenyl)methyl]-2-pyridinecarboxylate]
2 | < 1000 nM | ≤ 31.6 nM | O=C(O)c1cccc(Cc2cc(Cl)ccc2OCc2ccc(F)cc2F)n1 [Example 4, Sodium 6-[(5-chloro-2-{[(2,4-difluorophenyl)methyl]oxy}phenyl)methyl]-2-pyridinecarboxylate]
3 | < 1000 nM | ≤ 31.6 nM | O=C(O)c1cccc(Cc2cc(Cl)ccc2OCc2cc(F)c(F)cc2F)n1 [Example 10, Sodium 6-[(5-chloro-2-{[(2,4,5-trifluorophenyl)methyl]oxy}phenyl)methyl]-2-pyridinecarboxylate]
4 | < 1000 nM | ≤ 31.6 nM | O=C(O)c1cccc(Cc2cc(Cl)ccc2OCc2ccc(F)cc2Cl)n1 [Example 11, Sodium 6-[(5-chloro-2-{[(2-chloro-4-fluorophenyl)methyl]oxy}phenyl)methyl]-2-pyridinecarboxylate]
5 | ≤ 31.6 nM | ≤ 31.6 nM | O=C(O)c1cccc(Cc2cc(Cl)ccc2OCc2ccc(Cl)cc2Cl)n1 [Example 12, Sodium 6-[(5-chloro-2-{[(2,4-dichlororophenyl)methyl]oxy}phenyl)methyl]-2-pyridinecarboxylate]
6 | < 1000 nM | ≤ 31.6 nM | O=C(O)c1cccc(Cc2cc(Cl)ccc2OCC2CCCC2)n1 [Example 14, Sodium 6-({5-chloro-2-[(cyclopentylmethyl)oxy]phenyl}methyl)-2-pyridinecarboxylate]
7 | < 1000 nM | ≤ 31.6 nM | O=C(NS(=O)(=O)c1ccccc1)c1cccc(Cc2cc(Cl)ccc2OCc2ccc(Cl)cc2F)n1 [Example 28, 6-[(5-chloro-2-{[(4-chloro-2-fluorophenyl)methyl]oxy}phenyl)-methyl]-N-(phenylsulphonyl)-2-pyridinecarboxamide]
8 | > 1000 nM | ≤ 31.6 nM | CS(=O)(=O)NC(=O)c1cccc(Cc2cc(Cl)ccc2OCc2ccc(Cl)cc2F)n1 [Example 29, 6-[(5-Chloro-2-{[(4-chloro-2-fluorophenyl)methyl]oxy}-phenyl)methyl]-N-(methylsulphonyl)-2-pyridinecarboxamide]
9 | < 1000 nM | ≤ 31.6 nM | CCCS(=O)(=O)NC(=O)c1cccc(Cc2cc(Cl)ccc2OCc2ccc(Cl)cc2F)n1 [Example 30, 6-[(5-Chloro-2-{[(4-chloro-2-fluorophenyl)methyl]oxy}-phenyl)methyl]-N-(propylsulphonyl)-2-pyridinecarboxamide]
10 | > 1000 nM | ≤ 31.6 nM | O=C(NS(=O)(=O)c1ccc(Br)cc1)c1cccc(Cc2cc(Cl)ccc2OCc2ccc(Cl)cc2F)n1 [Example 33, N-[(4-Bromophenyl)sulphonyl]-6-[(5-chloro-2-{[(4-chloro-2-fluorophenyl)methyl]oxy}phenyl)-methyl]-2-pyridinecarboxamide]
11 | ≤ 31.6 nM | ≤ 31.6 nM | O=C(NS(=O)(=O)c1cccc(Br)c1)c1cccc(Cc2cc(Cl)ccc2OCc2ccc(Cl)cc2F)n1 [Example 34, N-[(3-Bromophenyl)sulphonyl]-6-[(5-chloro-2-{[(4-chloro-2-fluorophenyl)methyl]oxy}phenyl)-methyl]-2-pyridinecarboxamide]
12 | < 1000 nM | ≤ 31.6 nM | Cc1noc(C)c1S(=O)(=O)NC(=O)c1cccc(Cc2cc(Cl)ccc2OCc2ccc(Cl)cc2F)n1 [Example 36, 6-[(5-Chloro-2-{[(4-chloro-2-fluorophenyl)methyl]oxy}-phenyl)methyl]-N-[(3,5-dimethyl-4-isoxazolyl)sulphonyl]-2-pyridinecarboxamide]
13 | ≤ 31.6 nM | ≤ 31.6 nM | Fc1cc(Cl)ccc1COc1ccc(Cl)cc1Cc1cccc(-c2nnn[nH]2)n1 [Example 38, 2-[(5-Chloro-2-{[(4-chloro-2-fluorophenyl)methyl]oxy}phenyl)-methyl]-6-(1H-tetrazol-5-yl)pyridine]
14 | ≤ 31.6 nM | ≤ 31.6 nM | Cc1ccc(C(=O)O)nc1Cc1cc(Cl)ccc1OCc1ccc(Cl)cc1F [Example 39, 6-[(5-Chloro-2-{[(4-chloro-2-fluorophenyl)methyl]oxy}-phenyl)methyl]-5-methyl-2-pyridinecarboxylic acid, sodium salt]
